SMILES strings stand for the structures. Like-named read-outs stand apart in the source and are kept apart here.

The source of these data is patent US11493451B2, “Colorimetric drug test strip using porous support material” (Palo Alto Research Center Incorporated, priority 2019, dated 2022).

Data set [1] can be described thus: Oral fluid and plasma MDMA and metabolite after controlled oral MDMA administration (Desrosiers et al.). The format is in vivo, human. To be noted: MDMA (75 mg); for Kp: human, saliva (oral fluid) / plasma, read-out: Ratio Saliva/Blood. The text has this: This makes metabolite detection very challenging.
For data set [2] the following is noted: MDMA (75 mg), oral, cited from earlier work; for Concentration in Saliva: maximum concentration in oral fluid.
For data set [3] the following is noted: after MDMA; cited from earlier work.
The conditions of data set [4]: MA (20 mg), cited from earlier work; for Concentration in Saliva: maximum concentration in oral fluid.
The nature of data set [5]: THC and metabolite concentrations in oral fluid and whole blood after smoking a cannabis joint (Fabritius et al.). From the text: (§1) While pharmacokinetic profile is specific to each individual drug, there are multiple challenges with immunoassay-based roadside drug testing. Current hand-held immunoassays drug testing devices from saliva detect the metabolites of the drugs in question. One challenge with metabolite testing is that depending on the drug and on the mode of administration, there may be delays in the detectability of the drug from the time of ingestion to the test time. For example, in the case of methylenedioxy-methamphetamine (MDMA) detection, the time to maximum concentration of (tmax) of MDMA is 2.8 hours, while for its main metabolite, methylenedioxyamphetamine (MDA), the tmax increases to 4.8 hours. […] This makes metabolite detection very challenging.

For data set [6] the following is noted: cited from earlier work; for Cmax in blood or plasma / Concentration in Saliva: THC (40 mg); for Concentration in Saliva: maximum concentration in oral fluid.
For data set [7] the following is noted: cited from earlier work.
Data set [8] is described as follows: Cocaine and metabolites in human oral fluid and plasma following controlled administration (Scheidweiler et al.).
Description: as §1

The conditions of data set [9]: Cocaine (75 mg subcutaneous), cited from earlier work.
A short description of data set [10]: Methamphetamine disposition in oral fluid and plasma (Huestis et al.).
Description: as §1

Where [11] appears, read: Cocaine (75 mg subcutaneous), cocaine vs BE + EME.

`CNC(C)Cc1ccc2c(c1)OCO2` (stereo not drawn) [MDMA, methylenedioxy-methamphetamine]: the “Ratio Parent:Metabolite, concentration in saliva” value in data set [1] (MDMA vs MDA) was 40. Also, the Kp in [1] came out at 11. Besides, in data set [2], the “Cmax in blood or plasma” value is 150 ng/mL and the “Concentration in Saliva” value was 1643 ng/mL. In data set [3], the “time to maximum concentration (tmax)” value was 2.8 h.
Turning to `CC(N)Cc1ccc2c(c1)OCO2` (stereo not drawn) [MDA, methylenedioxyamphetamine], the Kp in [1] was 5.8. In addition, in data set [2], the “Cmax in blood or plasma” value is reported as 7 ng/mL and the “Concentration in Saliva” value is listed as 41 ng/mL. The “time to maximum concentration (tmax)” value in data set [3] is 4.8 h.
For `CC(N)Cc1ccccc1` (stereo not drawn) [A], in data set [4], the “Concentration in Saliva” value is 14 ng/mL.
As to `CCCCCc1cc(O)c2c(c1)OC(C)(C)[C@@H]1CCC(C)=C[C@@H]21` [THC, Δ9-tetrahydrocannabinol], in data set [5] (THC (40 mg), THC vs THC-COOH), the “Ratio Parent:Metabolite, Cmax in blood or plasma” value (from here on “Ratio Parent:Metabolite, Cmax”) stood at 2.1 and the “Ratio Parent:Metabolite, concentration in saliva” value was 2120. Besides, the Kp in [5] (human, saliva (oral fluid) / whole blood, inhaled, 40 mg) was found to be 7.3. For the same molecule, in data set [6], the “Cmax in blood or plasma” value is 87 ng/mL and the “Concentration in Saliva” value is listed as 636 ng/mL. The “THC concentration in saliva relative to main metabolite THC-COOH (times higher)” value in data set [6] (in one study, saliva) is listed as about 2000 ×. Further, the “time over which saliva THC concentration decreases slowly after consumption” value in data set [7] (THC ingested from food, saliva) was “about 24 hours”. Further, in data set [7] (first 15 minutes, saliva), the “THC concentration in saliva after being ingested from food versus same amount of smoked THC” value is “about ten times lower”. For the same molecule, in data set [7] (smoked or vaped THC), the “rapid decay after maximum concentration” value is 1 to 2 h; the “time to peak effect and maximum concentration” value was “seconds or minutes”.
As to `COC(=O)[C@H]1[C@@H](OC(=O)c2ccccc2)C[C@@H]2CC[C@H]1N2C` [Cocaine, cocaine], in [8] (setting [11]), the “Ratio Parent:Metabolite, Cmax” value is reported as 0.8 and the “Ratio Parent:Metabolite, concentration in saliva” value came out at 4.1. For the same molecule, the Kp in [8] (human, saliva (oral fluid) / plasma, sc, 75 mg) was 3.6. For the same molecule, the “Cmax in blood or plasma” value in data set [9] was 305 ng/mL. Besides, in data set [9] (maximum concentration in oral fluid), the “Concentration in Saliva” value is on record as 1092 ng/mL.
On to `CN[C@@H](C)Cc1ccccc1` [MA, methamphetamine], for which, in [10] (MA (20 mg), MA vs A), the “Ratio Parent:Metabolite, Cmax” value is recorded as 5.3 and the “Ratio Parent:Metabolite, concentration in saliva” value is given as 13.7. For the same molecule, the Kp in data set [10] (human, saliva (oral fluid) / plasma, 20 mg) was 6. Moreover, in data set [4], the “Cmax in blood or plasma” value is given as 32 ng/mL and the “Concentration in Saliva” value is on record as 192 ng/mL.
Consider `CCCCCc1cc(O)c2c(c1)OC(C)(C)[C@@H]1CCC(C(=O)O)=C[C@@H]21` [THC-COOH], for which the “Ratio Saliva/Blood” value in data set [5] (THC (40 mg)) was 0.007. For the same molecule, in data set [6], the “Cmax in blood or plasma” value is 41 ng/mL and the “Concentration in Saliva” value is listed as 0.3 ng/mL.
